Biological target: LovK (Caulobacter vibrioides, UniProt A0A0H3C379)
Test: competition with BODIPY-ATP, fluorescence anisotropy
Format: binding
Details: 1 mM ATP in excess; competitive, same site as BODIPY-ATP

## Nc1ncnc2c1ncn2[C@@H]1O[C@H](COP(=O)(O)OP(=O)(O)OP(=O)(O)O)[C@@H](O)[C@H]1O [ATP]
  competition with BODIPY-ATP, fluorescence anisotropy: BODYPI-ATP is displaced from LovK due to competition for the same binding site
